This note sets out measurements from patent US9545105B2, “1-(heterocyclic carbonyl) piperidines” (BAYER INTELLECTUAL PROPERTY GMBH, priority 2010, dated 2017).

SMILES strings stand for the structures.

The nature of data set [1]: log P by HPLC on reversed-phase column (C 18), EEC Directive 79/831 Annex V.A8. The class given is physicochemical. To be noted: HPLC on reversed-phase column (C 18), 40° C., 0.1% aqueous formic acid and acetonitrile, linear gradient 10% to 90% acetonitrile. The method in brief:
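Column at 40° C; mobile phases 0.1% aqueous formic acid and acetonitrile, linear gradient 10% to 90% acetonitrile. Calibrated with unbranched alkan-2-ones (3 to 16 carbons) of known log P; values from retention times by linear interpolation between two successive alkanones.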

The next data set relates to Sphaerotheca fuliginea. Nature of the data set: In vivo preventive test on Sphaerotheca fuliginea (cucumber). To be noted: 500 ppm of active ingredient, evaluated 7 days after inoculation. Here is the method: Solvent: 49 parts by weight of N,N-dimethylformamide Emulsifier: 1 part by weight of Alkylarylpolyglycolether To produce a suitable preparation of active compound, 1 part by weight of active compound is mixed with the stated amounts of solvent and emulsifier, and the concentrate is diluted with water to the desired concentration. To test for preventive activity, young plants are sprayed with the preparation of active compound at the stated rate of application. One day after this treatment, the plants are inoculated with an aqueous spore suspension of Sphaerotheca fuliginea. Then the plants are placed in a greenhouse at approximately 23° C. and a relative atmospheric humidity of approximately 70%. The test is evaluated 7 days after the inoculation. 0% means an efficacy which corresponds to that of the untreated control, while an efficacy of 100% means that no disease is observed.

A further data set deals with Alternaria solani. Nature of the data set: In vivo preventive test on Alternaria solani (tomato). To be noted: 500 ppm of active ingredient, evaluated 7 days after inoculation. The method in brief: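 Young tomato plants were sprayed preventively with compound in DMF/alkylarylpolyglycolether diluted in water, then inoculated one day later with A. solani spores. Incubation was 1 day at about 22 °C and 100% RH, then about 20 °C and 96% RH. Efficacy was scored 7 days after inoculation (0% = untreated control, 100% = no disease).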

For the next data set, the system named is Pyrenophora teres. Kind of data set: In vivo preventive test on Pyrenophora teres (barley). Conditions: 500 ppm of active ingredient, evaluated 7-9 days after inoculation. The gist of the method:
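Young barley plants sprayed with compound in DMF/alkylaryl polyglycol ether emulsion; inoculated with P. teres spores one day later. 48 h at 22 °C, 100% humidity, then greenhouse ~20 °C, ~80% humidity; efficacy scored 7-9 days post-inoculation, 0% = untreated, 100% = no disease.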

Another data set deals with Venturia inaequalis. Kind of data set: In vivo preventive test on Venturia inaequalis (apple scab). To be noted: 100 ppm of active ingredient, evaluated 10 days after inoculation. Here is the method: (§1) Solvent: 24.5 parts by weight of acetone • 24.5 parts by weight of N,N-dimethylacetamide Emulsifier: 1 part by weight of alkylaryl polyglycol ether To produce a suitable preparation of active compound, 1 part by weight of active compound is mixed with the stated amounts of solvent and emulsifier, and the concentrate is diluted with water to the desired concentration. To test for preventive activity, young plants are sprayed with the preparation of active compound at the stated rate of application. After the spray coating has dried on, the plants are inoculated with an aqueous conidia suspension of the causal agent of apple scab (Venturia inaequalis) and then remain for 1 day in an incubation cabinet at approximately 20° C. and a relative atmospheric humidity of 100%. The plants are then placed in a greenhouse at approximately 21° C. and a relative atmospheric humidity of approximately 90%. The test is evaluated 10 days after the inoculation. 0% means an efficacy which corresponds to that of the untreated control, while an efficacy of 100% means that no disease is observed.

For another data set, the system named is Uromyces appendiculatus. Kind of data set: In vivo preventive test on Uromyces appendiculatus (bean rust). To be noted: 100 ppm of active ingredient, evaluated 10 days after inoculation. Here is the method:
as §1, with “spore” for “conidia”, “bean rust (Uromyces appendiculatus)” for “apple scab (Venturia inaequalis)”

The next data set concerns Septoria tritici. Nature of the data set: In vivo preventive test on Septoria tritici (wheat). Conditions: 500 ppm of active ingredient, evaluated 21 days after inoculation. How it is done:
Solvent: 49 parts by weight of N,N-dimethylacetamide Emulsifier: 1 part by weight of alkylaryl polyglycol ether To produce a suitable preparation of active compound, 1 part by weight of active compound or active compound combination is mixed with the stated amounts of solvent and emulsifier, and the concentrate is diluted with water to the desired concentration. To test for preventive activity, young plants are sprayed with the preparation of active compound or active compound combination at the stated rate of application. After the spray coating has been dried, the plants are sprayed with a spore suspension of Septoria tritici. The plants remain for 48 hours in an incubation cabinet at approximately 20° C. and a relative atmospheric humidity of approximately 100% and afterwards for 60 hours at approximately 15° C. in a translucent incubation cabinet at a relative atmospheric humidity of approximately 100%. The plants are placed in the greenhouse at a temperature of approximately 15° C. and a relative atmospheric humidity of approximately 80%. The test is evaluated 21 days after the inoculation. 0% means an efficacy which corresponds to that of the untreated control, while an efficacy of 100% means that no disease is observed.

Data set [2] concerns Blumeria graminis f. sp. hordei. Nature of the data set: In vivo preventive test on Blumeria graminis (barley). Conditions: 500 ppm of active ingredient, evaluated 7 days after inoculation. Here is the method:
Solvent: 49 parts by weight of N,N-dimethylacetamide Emulsifier: 1 part by weight of alkylaryl polyglycol ether To produce a suitable preparation of active compound, 1 part by weight of active compound or active compound combination is mixed with the stated amounts of solvent and emulsifier, and the concentrate is diluted with water to the desired concentration. To test for preventive activity, young plants are sprayed with the preparation of active compound or active compound combination at the stated rate of application. After the spray coating has been dried, the plants are dusted with spores of Blumeria graminis f. sp. hordei. The plants are placed in the greenhouse at a temperature of approximately 18° C. and a relative atmospheric humidity of approximately 80% to promote the development of mildew pustules. The test is evaluated 7 days after the inoculation. 0% means an efficacy which corresponds to that of the untreated control, while an efficacy of 100% means that no disease is observed.

Turning to `Cc1ccccc1C1CCCCN1C(=O)c1c(C)nn(C)c1F` (centres unmarked) [Example 1, (5-fluoro-1,3-dimethyl-1H-pyrazol-4-yl)[2-(2-methylphenyl)-piperidin-1-yl]methanone], the chromatographic logP in data set [1] (reversed-phase HPLC column (C 18)) was 2.71. The Efficacy in the data set with Sphaerotheca fuliginea is listed as 95%; with Alternaria solani it was 95%; with Pyrenophora teres, 100%; in the data set with Venturia inaequalis, 99%; in the data set on Uromyces appendiculatus it was 100%; in the data set on Septoria tritici it was 100%. Further, the Efficacy in data set [2] was 89%.

For the compound `CCc1nn(C)c(F)c1C(=O)N1CCCCC1c1ccccc1C` (centres unmarked) [Example 4], in data set [1], the logP is given as 3.06. Moreover, the Efficacy in the data set with Sphaerotheca fuliginea amounted to 95%; with Alternaria solani, 95%; in the data set on Pyrenophora teres, 100%; in the data set on Septoria tritici, 100%; in data set [2], 78%.

`Cc1nn(C)c(F)c1C(=O)N1CCCCC1c1ccccc1Cl` (centres unmarked) [Example 36] had a logP in data set [1] of 2.89. For the same compound, the Efficacy in the data set with Sphaerotheca fuliginea was 89%; with Alternaria solani it was 95%; in the data set on Pyrenophora teres, 100%; with Septoria tritici, 80%.

In data set [1], `CCc1nn(C)c(F)c1C(=O)N1CCCCC1c1ccccc1Cl` (centres unmarked) [Example 37] gave a logP of 3.19. Besides, the Efficacy in the data set with Sphaerotheca fuliginea was found to be 70%; in the data set with Alternaria solani, 95%; with Pyrenophora teres, 95%; in the data set with Septoria tritici it was 80%.

`Cc1nn(C)c(F)c1C(=O)N1CCCCC1c1cccc(Cl)c1` (centres unmarked) [Example 44] had a logP in data set [1] of 2.94. For the same compound, the Efficacy is 89% with Sphaerotheca fuliginea, 95% in the data set on Alternaria solani, 100% in the data set on Pyrenophora teres and 90% in the data set on Septoria tritici.

The compound `Cc1nn(C)c(F)c1C(=O)N1CCCCC1c1cccc(Cl)c1Cl` (centres unmarked) [Example 73] yielded a logP in data set [1] of 3.25. Besides, the Efficacy with Sphaerotheca fuliginea is 85%; with Alternaria solani it was 95%; with Pyrenophora teres, 100%; in the data set on Septoria tritici, 80%.

The compound `Cc1nn(C)c(F)c1C(=O)N1CCCCC1c1cc(Cl)ccc1Cl` (centres unmarked) [Example 83] came in with a logP in data set [1] of 3.29. Further, the Efficacy with Sphaerotheca fuliginea is recorded as 94%; in the data set with Alternaria solani it was 95%; with Pyrenophora teres it was 100%; with Septoria tritici, 80%.

Regarding `Cc1nn(C)c(F)c1C(=O)N1CCCCC1c1ccccc1Br` (centres unmarked) [Example 88], the logP in data set [1] is reported as 2.99. Besides, the Efficacy with Sphaerotheca fuliginea is listed as 94%; in the data set with Alternaria solani it was 95%; in the data set on Pyrenophora teres, 95%; with Septoria tritici, 89%.

With `CCC(c1ccccc1Cl)C1CCCCN1C(=S)c1c(C(F)F)nn(C)c1F` (centres unmarked) [Example 165], in data set [1], the logP was determined as 4.95. Further, the Efficacy with Sphaerotheca fuliginea came out at 100%; in the data set on Alternaria solani, 90%; in the data set on Pyrenophora teres, 100%; with Venturia inaequalis, 99%; in the data set with Uromyces appendiculatus, 73%.
